We go through 27 compounds from US9938269B2, “Inhibitor compounds of phosphodiesterase type 10A” (ABBVIE INC., priority 2011, dated 2018).

One data set concerns the target T1, PDE10A (human) (Homo sapiens, UniProt Q9Y233).
T1 construct: purchased BPS Bioscience
The data set can be described thus: Measurement of PDE activity (HTRF cAMP kit), human PDE10A. The class given is biochemical. As to conditions: PDE enzymatic reaction, substrate 20 nM for PDE10, 60 minutes at 29 C. In outline: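 HTRF detection of cAMP left after hydrolysis, expressed as percent of uninhibited control to derive IC50. Reaction: serially diluted inhibitor mixed with recombinant enzyme, started with 20 nM cAMP, 60 min at 29 °C in Tris-HCl pH 7.5 buffer containing MgCl2 and BSA.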

Data set [1] can be described thus: Determination of the microsomal half-life, rat liver microsomes. Conditions: rat, liver microsomes, pH 7.4.
Data set [2] in a line: Determination of the microsomal half-life, human liver microsomes. Conditions: human, liver microsomes, pH 7.4.

Where a name gives a salt, the structure may show the parent alone.

T1 sequence (Q9Y233 whole entry): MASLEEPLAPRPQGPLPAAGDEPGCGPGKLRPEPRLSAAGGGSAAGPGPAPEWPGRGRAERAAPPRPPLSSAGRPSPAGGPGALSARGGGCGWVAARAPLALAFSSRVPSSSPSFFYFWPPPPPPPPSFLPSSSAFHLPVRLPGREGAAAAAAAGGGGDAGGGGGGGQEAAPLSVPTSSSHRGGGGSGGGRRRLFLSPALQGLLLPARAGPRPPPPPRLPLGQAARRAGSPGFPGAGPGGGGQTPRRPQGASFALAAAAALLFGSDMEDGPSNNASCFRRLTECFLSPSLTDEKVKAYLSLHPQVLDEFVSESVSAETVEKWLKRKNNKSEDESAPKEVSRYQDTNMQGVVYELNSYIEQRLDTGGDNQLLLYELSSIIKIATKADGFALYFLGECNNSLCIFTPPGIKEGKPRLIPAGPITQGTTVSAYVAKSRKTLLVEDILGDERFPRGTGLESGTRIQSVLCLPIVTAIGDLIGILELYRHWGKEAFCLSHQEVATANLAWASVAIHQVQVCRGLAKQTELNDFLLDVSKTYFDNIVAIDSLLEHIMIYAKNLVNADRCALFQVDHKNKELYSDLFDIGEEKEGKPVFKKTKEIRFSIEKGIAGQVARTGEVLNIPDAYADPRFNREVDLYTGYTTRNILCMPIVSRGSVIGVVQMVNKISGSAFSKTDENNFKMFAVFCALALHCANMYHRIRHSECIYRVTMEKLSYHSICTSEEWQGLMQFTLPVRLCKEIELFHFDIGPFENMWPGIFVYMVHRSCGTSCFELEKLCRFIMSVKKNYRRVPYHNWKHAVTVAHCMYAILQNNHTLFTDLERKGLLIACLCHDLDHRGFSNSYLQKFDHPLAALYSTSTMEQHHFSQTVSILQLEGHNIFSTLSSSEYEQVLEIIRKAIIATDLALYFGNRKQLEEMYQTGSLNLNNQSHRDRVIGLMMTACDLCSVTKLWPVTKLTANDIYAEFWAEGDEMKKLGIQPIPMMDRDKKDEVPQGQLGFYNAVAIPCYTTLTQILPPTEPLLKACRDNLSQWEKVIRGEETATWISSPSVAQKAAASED

`Cc1ncc(-c2ccnc3c2C(=O)N(CCc2ccc4ccccc4n2)C3)s1` [Example 326, 4-(2-Methyl-thiazol-5-yl)-6-(2-quinolin-2-yl-ethyl)-6,7-dihydro-pyrrolo[3,4-b]pyridin-5-one]: the IC50 against PDE10A (human) was less than 100 nM. The intrinsic metabolic clearance (microsomal CLint) at 0.5 μM in data set [1] and in data set [2] was 100 to 220 µL/min/mg in each case.
On PDE10A (human), `O=C1c2c(cccc2NC2COC2)CN1CCc1ccc2ccccc2n1` [Example 274, 7-(Oxetan-3-ylamino)-2-(2-quinolin-2-yl-ethyl)-2,3-dihydro-isoindol-1-one] registered a half-maximal inhibitory concentration (IC50) of less than 100 nM. The microsomal CLint at 0.5 μM in data set [1] and in data set [2] was 100 to 220 µL/min/mg each time.
The compound `O=C1c2c(cccc2N2CCOCC2)CN1CCc1ccc2cc(F)ccc2n1` [Example 115, 2-[2-(6-Fluoro-quinolin-2-yl)-ethyl]-7-morpholin-4-yl-2,3-dihydro-isoindol-1-one trifluoroacetate] registered an IC50 at PDE10A (human) of less than 100 nM. Moreover, the microsomal CLint at 0.5 μM in data set [1] is less than 100 µL/min/mg; in data set [2], 100 to 220 µL/min/mg.
`O=C1c2c(-c3ccnnc3)ccnc2CN1CCc1ccc2ccccc2n1` [Example 338, 4-Pyridazin-4-yl-6-(2-quinolin-2-yl-ethyl)-6,7-dihydro-pyrrolo[3,4-b]pyridin-5-one] had a 50% inhibitory concentration (IC50) against PDE10A (human) of less than 100 nM. The microsomal CLint at 0.5 μM in data set [1] and in data set [2] was less than 100 µL/min/mg each time.
`Cc1cnc(CCN2Cc3nccc(N4CCOCC4)c3C2=O)cc1C` [compound 520, 6-[2-(4,5-Dimethyl-2-pyridyl)ethyl]-4-morpholino-7H-pyrrolo[3,4-b]pyridin-5-one] registered a 50% inhibitory concentration (IC50) against PDE10A (human) of 100 to 200 nM. Besides, the intrinsic clearance (microsomal CLint) at 0.5 μM was 100 to 220 µL/min/mg in data set [1] and less than 100 µL/min/mg in data set [2].
The compound `O=C1c2c(cccc2N2CCOCC2)CN1CCc1cn2ccccc2n1` [Example 310, 2-(2-Imidazo[1,2-a]pyridin-2-yl-ethyl)-7-morpholin-4-yl-2,3-dihydro-isoindol-1-one] gave an IC50 against PDE10A (human) of less than 100 nM. The microsomal CLint at 0.5 μM in data set [1] and in data set [2] was less than 100 µL/min/mg throughout.
`O=C1c2c(cccc2N2CCOCC2)CN1CCc1cnc2ccccc2n1` [compound 482, 7-Morpholino-2-(2-quinoxalin-2-ylethyl)isoindolin-1-one]: on PDE10A (human), the half-inhibitory concentration (IC50) lay in the range of 100 to 200 nM. The microsomal CLint at 0.5 μM in data set [1] and in data set [2] was less than 100 µL/min/mg in each case.
For the compound `O=C1c2c(-c3cncnc3)ccc(F)c2CN1CCc1cn2ccccc2n1` [Example 381, 4-Fluoro-2-(2-imidazo[1,2-a]pyridin-2-yl-ethyl)-7-pyrimidin-5-yl-2,3-dihydro-isoindol-1-one], on PDE10A (human), the IC50 was less than 100 nM. Also, the results for the intrinsic clearance (microsomal CLint) at 0.5 μM in data set [1] and in data set [2] were less than 100 µL/min/mg and 100 to 220 µL/min/mg, respectively.
At PDE10A (human), `Cc1ccc(CCN2Cc3nccc(-c4ccncc4)c3C2=O)nc1` [compound 481, 6-[2-(5-Methyl-2-pyridyl)ethyl]-4-(4-pyridyl)-7H-pyrrolo[3,4-b]pyridin-5-one trifluoroacetate] displayed a half-inhibitory concentration (IC50) of 200 to 500 nM. Besides, the microsomal CLint at 0.5 μM in data set [1] and in data set [2] was less than 100 µL/min/mg in each case.
With `Cn1c(CCN2Cc3cccc(-c4cncnc4)c3C2=O)nc2ccccc21` [Example 197, 2-[2-(1-Methyl-1H-benzoimidazol-2-yl)-ethyl]-7-pyrimidin-5-yl-2,3-dihydro-isoindol-1-one], at PDE10A (human), the half-maximal inhibitory concentration (IC50) was less than 100 nM. For the same compound, the microsomal CLint at 0.5 μM is less than 100 µL/min/mg in data set [1] and 100 to 220 µL/min/mg in data set [2].
In the same order, the values of `O=C1c2c(cccc2-c2ccc3[nH]cnc(=O)c3c2)CN1CCc1ccc2ccccc2n1` [Example 7, 6-[3-oxo-2-(2-quinolin-2-yl-ethyl)-2,3-dihydro-1H-isoindol-4-yl]-1H-quinazolin-4-one trifluoroacetate] are 200 to 500 nM, 100 to 220 µL/min/mg and 100 to 220 µL/min/mg.
Take `O=C1c2c(N3CCOCC3)ccnc2CN1CCc1ccc2ncccc2n1` [compound 514, 4-Morpholino-6-[2-(1,5-naphthyridin-2-yl)ethyl]-7H-pyrrolo[3,4-b]pyridin-5-one]: on PDE10A (human), the IC50 is less than 100 nM. Besides, the microsomal CLint at 0.5 μM in data set [1] and in data set [2] was less than 100 µL/min/mg each time.
In the case of `O=C1c2c(N3CCC(O)CC3)ccnc2CN1CCc1ccc2ccccc2n1` [compound 530, 4-(4-Hydroxy-piperidin-1-yl)-6-(2-quinolin-2-yl-ethyl)-6,7-dihydro-pyrrolo[3,4-b]pyridin-5-one trifluoroacetate], at PDE10A (human), the half-inhibitory concentration (IC50) is less than 100 nM. Further, the microsomal CLint at 0.5 μM in data set [1] was 100 to 220 µL/min/mg; in data set [2], less than 100 µL/min/mg.
At PDE10A (human), `O=C1c2c(cccc2N2CCN(c3ccncc3)CC2)CN1CCc1ccc2ccccc2n1` [Example 106, 7-(4-Pyridin-4-yl-piperazin-1-yl)-2-(2-quinolin-2-yl-ethyl)-2,3-dihydro-isoindol-1-one] displayed an IC50 of 200 to 500 nM. Further, the values for the microsomal CLint at 0.5 μM in data set [1] and in data set [2] were less than 100 µL/min/mg and 100 to 220 µL/min/mg, respectively.
The like results for `O=C1c2c(-c3ccncc3)ccnc2CN1CCc1ccc(-c2ccccc2)cn1` [compound 488, 6-[2-(5-Phenyl-2-pyridyl)ethyl]-4-(4-pyridyl)-7H-pyrrolo[3,4-b]pyridin-5-one trifluoroacetate] were, in that order, 200 to 500 nM, greater than 220 µL/min/mg and 100 to 220 µL/min/mg.
The like results for `CN(C)CCCn1c(CCN2Cc3cccc(-c4ccncc4)c3C2=O)nc2ccccc21` [Example 294, 2-{2-[1-(3-Dimethylamino-propyl)-1H-benzoimidazol-2-yl]-ethyl}-7-pyridin-4-yl-2,3-dihydro-isoindol-1-one trifluoroacetate] were, in that order, 200 to 500 nM, less than 100 µL/min/mg and 100 to 220 µL/min/mg.
On to `CN1CCN(c2cccc3c2C(=O)N(CCc2ccc4ccccc4n2)C3)CC1` [Example 107, 7-(4-Methyl-piperazin-1-yl)-2-(2-quinolin-2-yl-ethyl)-2,3-dihydro-isoindol-1-one], for which the IC50 against PDE10A (human) lay in the range of 200 to 500 nM. For the same compound, the microsomal CLint at 0.5 μM in data set [1] and in data set [2] was less than 100 µL/min/mg throughout.
In turn, `O=C1c2c(cccc2N2CCOCC2)CN1CCc1ccc2sccc2n1` [Example 556, 7-Morpholino-2-(2-(thieno[3,2-b]pyridin-5-yl)ethyl)isoindolin-1-one] showed an IC50 against PDE10A (human) of 100 to 200 nM. In addition, the microsomal CLint at 0.5 μM in data set [1] and in data set [2] was 100 to 220 µL/min/mg each time.
`O=C1c2c(N3CCC(C(F)F)C3)ccnc2CN1CCc1nc2ccccc2s1` (stereo not drawn) [compound 385, 6-[2-(1,3-Benzothiazol-2-yl)ethyl]-4-[3-(difluoromethyl)pyrrolidin-1-yl]-7H-pyrrolo[3,4-b]pyridin-5-one] showed a 50% inhibitory concentration (IC50) on PDE10A (human) of less than 100 nM. Further, the microsomal CLint at 0.5 μM in data set [1] and in data set [2] was 100 to 220 µL/min/mg in each case.
The compound `O=C1c2c(C3=CCOCC3)ccnc2CN1CCc1ccc2ccccc2n1` [Example 265, 4-(3,6-Dihydro-2H-pyran-4-yl)-6-(2-quinolin-2-yl-ethyl)-6,7-dihydro-pyrrolo[3,4-b]pyridin-5-one] registered a half-inhibitory concentration (IC50) against PDE10A (human) of less than 100 nM. Moreover, the microsomal CLint at 0.5 μM in data set [1] and in data set [2] was 100 to 220 µL/min/mg in each case.
Compound `O=C1c2c(-c3cn[nH]c3)ccnc2CN1CCc1ccc2ccccc2n1` [Example 156, 4-(1H-Pyrazol-4-yl)-6-(2-quinolin-2-yl-ethyl)-6,7-dihydro-pyrrolo[3,4-b]pyridin-5-one] yielded an IC50 on PDE10A (human) of less than 100 nM. Also, the intrinsic metabolic clearance (microsomal CLint) at 0.5 μM was 100 to 220 µL/min/mg in data set [1] and less than 100 µL/min/mg in data set [2].
The compound `Cn1nccc1-c1ccnc2c1C(=O)N(CCc1nc3ccccc3s1)C2` [compound 432, 6-[2-(1,3-Benzothiazol-2-yl)ethyl]-4-(2-methylpyrazol-3-yl)-7H-pyrrolo[3,4-b]pyridin-5-one trifluoroacetate] gave an IC50 against PDE10A (human) of 100 to 200 nM. Besides, the microsomal CLint at 0.5 μM in data set [1] and in data set [2] was less than 100 µL/min/mg each time.
On to `Cc1ccnc(CCN2Cc3nccc(N4CCOCC4)c3C2=O)c1` [compound 521, 6-[2-(4-Methyl-2-pyridyl)ethyl]-4-morpholino-7H-pyrrolo[3,4-b]pyridin-5-one], for which the IC50 against PDE10A (human) lay in the range of 200 to 500 nM. Further, the intrinsic clearance (microsomal CLint) at 0.5 μM in data set [1] and in data set [2] was less than 100 µL/min/mg in each case.
Turning to `O=C1c2c(cccc2N2C[C@@H]3C[C@H]2CN3)CN1CCc1ccc2ccccc2n1` [Example 101, 7-(1S,4S)-2,5-Diaza-bicyclo[2.2.1]hept-2-yl-2-(2-quinolin-2-yl-ethyl)-2,3-dihydro-isoindol-1-one], the 50% inhibitory concentration (IC50) on PDE10A (human) lay in the range of 200 to 500 nM. The microsomal CLint at 0.5 μM in data set [1] was greater than 220 µL/min/mg; in data set [2], less than 100 µL/min/mg.
As to `CN1CCN(c2ccnc3c2C(=O)N(CCc2cn4ccccc4n2)C3)CC1` [Example 273, 6-(2-Imidazo[1,2-a]pyridin-2-yl-ethyl)-4-(4-methyl-piperazin-1-yl)-6,7-dihydro-pyrrolo[3,4-b]pyridin-5-one], the intrinsic metabolic clearance (microsomal CLint) at 0.5 μM in data set [1] and in data set [2] was less than 100 µL/min/mg each time.
Take `CN1CCN(c2ccnc3c2C(=O)N(CCc2nc4ccccc4n2C)C3)CC1` [Example 226, 6-[2-(1-Methyl-1H-benzoimidazol-2-yl)-ethyl]-4-(4-methyl-piperazin-1-yl)-6,7-dihydro-pyrrolo[3,4-b]pyridin-5-one trifluoroacetate]: the intrinsic metabolic clearance (microsomal CLint) at 0.5 μM in data set [1] and in data set [2] was less than 100 µL/min/mg throughout.
Consider `O=C1c2cccc(-c3ccncc3)c2C(=O)N1CCc1ccc2ccccc2n1` [Example 249, 4-Pyridin-4-yl-2-(2-quinolin-2-yl-ethyl)-isoindole-1,3-dione dihydrochloride], for which the results for the microsomal CLint at 0.5 μM in data set [1] and in data set [2] were greater than 220 µL/min/mg and 100 to 220 µL/min/mg, respectively.
